The values that follow come from ChEMBL document CHEMBL1201862, “PubChem BioAssay data set” (2004).

Some test systems named below: A549; SR; HCT-116; HOP-92; Hs-578T; T47D; HL-60; UO-31; RPMI-8226; NCI-H460; OVCAR-8; SF-539; ACHN; HOP-62; COLO 205; NCI-H226; OVCAR-4; NCI-H522; SNB-75.
Common to all, as to assay: NCI anticancer screen, dose series, 48 h

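The compound was tested at five concentrations on cells cultured in 96-well plates, with a 48-hour exposure period. GI50 = concentration required for 50% inhibition of growth.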 Active and inactive are the calls of the source. No stated cut-off is given here; in the data, active = GI50 up to about 1.1 µM and inactive = higher. *1 amine or outer side, *2 acyl side, *3 side chain or, on linkers, in order; H or OH if unused. Where a SMILES comes first, the peptide text is derived from it. Bridges are numbered along the chain shown (N, C = ends). [ ]: non-standard residue; d: D form. The star is where a group is joined. ξ: configuration not given here. ξOrn(4,5-diOH) = O=C(C(CC(O)C(O)N[*:3])N[*:1])[*:2]; ξhTyr(βξ-OH,γξ-OH) = NC(C(=O)O)C(O)C(O)c1ccc(O)cc1; ξPro(3ξ-OH,4ξ-Me) = CC1CNC(C(=O)O)C1O; X55 = CCCCC/C=C/C/C=C\CCCCCCCC(=O)*; Hyp = O=C(O)[CH]1C[CH](O)CN1

On to `O=C1/C(=C\c2cccc(Oc3ccccc3)c2)SC(c2ccccc2)N1Cc1ccccc1` (centres undefined), for which the GI50 with A549 was 29.4 µM (inactive); with SR, 23.9 µM (inactive); with HCT-116, 14.9 µM (inactive); in the assay on HOP-92, 19 µM (inactive); with Hs-578T it was 29.1 µM (inactive); in the assay with T47D, 26.2 µM (inactive). Besides, the GI50 in the assay on HL-60 is 23.3 µM (inactive); in the assay on UO-31 it was 25.7 µM (inactive); with RPMI-8226 it was 24.3 µM (inactive); with NCI-H460, 33.3 µM (inactive); in the assay on OVCAR-8, 22.4 µM (inactive); in the assay with SF-539, 18.5 µM (inactive). Moreover, the GI50 in the assay with ACHN is 52.8 µM (inactive); in the assay with HOP-62 it was 29.1 µM (inactive); in the assay with COLO 205, 10.3 µM (inactive); in the assay with NCI-H226, 22.6 µM (inactive); in the assay with OVCAR-4, 31.6 µM (inactive); with NCI-H522, 18.2 µM (inactive).
In the case of `OCC1OC(n2cnc3cccnc32)CC1O` (centres undefined), the GI50 in the assay on SNB-75 is 7.76 µM (inactive); with A549 it was > 100 µM (inactive); in the assay with SR, > 100 µM (inactive); in the assay on HCT-116 it was > 100 µM (inactive); in the assay on HOP-92, > 100 µM (inactive); in the assay with Hs-578T, > 100 µM (inactive). Further, the GI50 with T47D, in the assay with HL-60, in the assay with UO-31, with NCI-H460, with OVCAR-8 and in the assay on SF-539 was > 100 µM (inactive) in each case. The GI50 in the assay on ACHN, in the assay on HOP-62, in the assay on COLO 205, in the assay on NCI-H226, with OVCAR-4 and in the assay with NCI-H522 was > 100 µM (inactive) in each case.
As for `CCCCC/C=C/C/C=C\CCCCCCCC(=O)NC1CC(O)C(O)NC(=O)C2C(O)C(C)CN2C(=O)C(C(C)O)NC(=O)C(C(O)C(O)c2ccc(O)cc2)NC(=O)C2CC(O)CN2C(=O)C(C(C)O)NC1=O` (stereo not drawn) (X55-[ξOrn(4,5-diOH)]T[Hyp][ξhTyr(βξ-OH,γξ-OH)]T[ξPro(3ξ-OH,4ξ-Me)]; lactam 1-C; configuration not given here), the GI50 with SNB-75, with A549, in the assay on SR, in the assay on HCT-116, in the assay with HOP-92 and in the assay with Hs-578T was > 100 µM (inactive) each time. Also, the GI50 in the assay with T47D, in the assay with HL-60, in the assay on UO-31, with RPMI-8226, with NCI-H460 and in the assay with OVCAR-8 was > 100 µM (inactive) throughout. Moreover, the GI50 with SF-539, in the assay on ACHN, in the assay with HOP-62, with COLO 205, in the assay on OVCAR-4 and in the assay on NCI-H522 was > 100 µM (inactive) in each case.
Turning to `O=C(NC(=S)Nc1ccc([N+](=O)[O-])cc1)c1ccc2c(c1)Sc1ccccc1O2`, the GI50 with SNB-75 is 13.8 µM (inactive); with A549 it was > 100 µM (inactive); in the assay on SR, > 100 µM (inactive); in the assay with HCT-116, > 100 µM (inactive); with HOP-92, 37.3 µM (inactive); in the assay on Hs-578T, 32.8 µM (inactive). Also, the GI50 in the assay with T47D was 24.6 µM (inactive); in the assay with HL-60, > 100 µM (inactive); in the assay on UO-31, > 100 µM (inactive); in the assay on NCI-H460, > 100 µM (inactive); in the assay with OVCAR-8, > 100 µM (inactive); in the assay on SF-539, 45.7 µM (inactive). Moreover, the GI50 was 49.9 µM (inactive) with ACHN; 78.5 µM (inactive) with HOP-62; > 100 µM (inactive) in the assay with COLO 205; > 100 µM (inactive) in the assay with NCI-H226; 48.1 µM (inactive) in the assay on NCI-H522.
With `O=C1OC(=O)C(=C\c2ccc3c(c2)OCO3)/C1=C/c1ccc2c(c1)OCO2`, the GI50 in the assay on A549 was 37.9 µM (inactive); with SR, > 52.8 µM (inactive); in the assay with HCT-116, > 100 µM (inactive); in the assay with HOP-92, > 100 µM (inactive); in the assay on Hs-578T it was > 88.5 µM (inactive); in the assay with T47D, > 100 µM (inactive). In addition, the GI50 was 44.8 µM (inactive) in the assay with HL-60; > 100 µM (inactive) in the assay with UO-31; > 55.6 µM (inactive) with RPMI-8226; > 100 µM (inactive) with NCI-H460; > 84.5 µM (inactive) with OVCAR-8; > 100 µM (inactive) in the assay on SF-539. For the same molecule, the GI50 with ACHN was > 100 µM (inactive); in the assay on HOP-62, > 100 µM (inactive); in the assay on COLO 205, > 100 µM (inactive); with NCI-H226, > 93.5 µM (inactive); in the assay with OVCAR-4 it was > 100 µM (inactive); with NCI-H522 it was 36.1 µM (inactive).
Consider `c1ccc(C(Oc2noc3ccccc23)c2ccccc2)cc1`, for which the GI50 in the assay with SNB-75 is 12.6 µM (inactive); with A549, 39.5 µM (inactive); with SR it was 13.2 µM (inactive); in the assay with HCT-116, 25.9 µM (inactive); in the assay with HOP-92, 35.6 µM (inactive); in the assay on Hs-578T it was 66.4 µM (inactive). For the same molecule, the GI50 in the assay with T47D was 3.64 µM (inactive); in the assay with HL-60, 23.4 µM (inactive); in the assay on UO-31 it was 39.5 µM (inactive); in the assay on NCI-H460, 29.2 µM (inactive); with OVCAR-8, 45.3 µM (inactive); in the assay on ACHN it was 51.3 µM (inactive). Also, the GI50 was 88.5 µM (inactive) in the assay with HOP-62; 16.9 µM (inactive) in the assay on COLO 205; 50.2 µM (inactive) in the assay with NCI-H226; 22.2 µM (inactive) with OVCAR-4; 26.1 µM (inactive) in the assay with NCI-H522.
Take `CCOC(=O)c1nc2ccccc2nc1Nc1ccc(C(=O)OC)s1`: the GI50 in the assay on SNB-75, with A549, in the assay with SR, in the assay on HCT-116, with HOP-92 and in the assay with Hs-578T was > 100 µM (inactive) each time. For the same molecule, the GI50 in the assay with T47D, in the assay on HL-60, in the assay on UO-31, with RPMI-8226, with NCI-H460 and in the assay on OVCAR-8 was > 100 µM (inactive) each time. The GI50 with SF-539 was > 100 µM (inactive); in the assay on ACHN it was > 100 µM (inactive); in the assay with HOP-62, > 100 µM (inactive); in the assay on COLO 205, > 100 µM (inactive); with OVCAR-4, > 100 µM (inactive); in the assay on NCI-H522 it was 47.4 µM (inactive).
For `CC(=O)Nc1cccc(N2C(=O)/C(=C\c3cccc(Oc4ccccc4)c3)SC2c2ccccc2)c1` (centres undefined), the GI50 with A549 was 94.8 µM (inactive); in the assay on SR, 17.2 µM (inactive); with HCT-116, 27 µM (inactive); with HOP-92 it was 32.5 µM (inactive); in the assay on Hs-578T it was 60 µM (inactive); with T47D, 78.7 µM (inactive). Besides, the GI50 is 36.6 µM (inactive) in the assay with HL-60; 47.9 µM (inactive) in the assay with UO-31; 30.3 µM (inactive) in the assay on RPMI-8226; > 100 µM (inactive) with NCI-H460; 92.5 µM (inactive) in the assay with OVCAR-8; 38.4 µM (inactive) in the assay on SF-539. For the same molecule, the GI50 in the assay with ACHN is 99.8 µM (inactive); with HOP-62 it was > 100 µM (inactive); with COLO 205, 68.7 µM (inactive); with NCI-H226 it was > 100 µM (inactive); in the assay on OVCAR-4, 53.5 µM (inactive); in the assay with NCI-H522, 63.5 µM (inactive).
On to `O=C(CCl)N1CCN(c2ccccn2)CC1`, for which the GI50 in the assay on SNB-75 was > 10 µM (inactive); in the assay on A549, > 10 µM (inactive); with SR, 34.9 µM (inactive); in the assay on HCT-116, 32.3 µM (inactive); in the assay with HOP-92 it was 21.3 µM (inactive); with Hs-578T, 42.8 µM (inactive). Besides, the GI50 was 13.2 µM (inactive) in the assay on T47D; 24.3 µM (inactive) in the assay on HL-60; 21.8 µM (inactive) in the assay on UO-31; 31.8 µM (inactive) in the assay with RPMI-8226; 19.3 µM (inactive) in the assay on NCI-H460; 26.2 µM (inactive) in the assay with OVCAR-8. Moreover, the GI50 in the assay with ACHN is 31.6 µM (inactive); in the assay on HOP-62 it was 22.7 µM (inactive); in the assay on COLO 205, 24.2 µM (inactive); in the assay on OVCAR-4, 15.6 µM (inactive).
Take `O=C1N(c2ccccc2)N=C2c3ccncc3C3=NN(c4ccccc4)C(=O)C123` (centres undefined): the GI50 in the assay on SNB-75 was > 100 µM (inactive); in the assay on A549 it was > 32.7 µM (inactive); in the assay on SR, 79.6 µM (inactive); in the assay with HCT-116, > 29.7 µM (inactive); with HOP-92, > 100 µM (inactive); in the assay with Hs-578T, > 100 µM (inactive). Also, the GI50 in the assay on T47D was 2.26 µM (inactive); in the assay on HL-60 it was 0.619 µM (active); with UO-31 it was 2.35 µM (inactive); in the assay with NCI-H460 it was 5.32 µM (inactive); in the assay on OVCAR-8 it was > 100 µM (inactive); with SF-539 it was 14.5 µM (inactive). The GI50 in the assay with ACHN was > 43.6 µM (inactive); in the assay on HOP-62 it was > 100 µM (inactive); with COLO 205, 2.12 µM (inactive); in the assay with NCI-H226, > 100 µM (inactive); in the assay with OVCAR-4, > 63 µM (inactive); with NCI-H522, > 100 µM (inactive).
For the molecule `C=C1C(=O)OC2CC(=C)C3CC=C(C)C3CC12` (centres undefined), the GI50 is 35.5 µM (inactive) with A549; 18.1 µM (inactive) in the assay with SR; 18.4 µM (inactive) in the assay on HCT-116; 10.5 µM (inactive) in the assay with HOP-92; 44.7 µM (inactive) with Hs-578T; 14.3 µM (inactive) in the assay with T47D. Also, the GI50 in the assay on HL-60 is 18.3 µM (inactive); in the assay on UO-31, 15.9 µM (inactive); in the assay on RPMI-8226, 14.2 µM (inactive); with NCI-H460, 28.8 µM (inactive); with OVCAR-8, 35.9 µM (inactive); with SF-539, 38.1 µM (inactive). The GI50 with ACHN was 18.7 µM (inactive); with HOP-62 it was 47 µM (inactive); in the assay with COLO 205, 17.9 µM (inactive); in the assay with NCI-H226, 15.6 µM (inactive); with OVCAR-4, 27.3 µM (inactive); with NCI-H522, 14.4 µM (inactive).
